In PubChem BioAssay AID1918999 (Molecular Pharmacology Branch, DTP, NCI, 2023):

System: 556581-035-R-J1-PDC complex spheroid growth
Test: Anticancer human tumor 556581-035-R-J1-PDC patient-derived ovarian carcinoma cell line growth inhibition [AhR]
Conditions: for IC50: curve of first compound; for viability, T/C: stronger effect = lower value
Excerpt: Multicellular complex tumor spheroid response to aryl hydrocarbon receptor antagonists in combination with a variety of drugs and investigational agents in selected tumor cell lines
The current study was undertaken to assess response to aryl hydrocarbon receptor antagonists in combination with standard-of-care drugs and investigational agents in solid tumor complex spheroid models. Complex spheroids include a stromal component modeled by human endothelial cells (HUVEC) and fibroblasts modeled by human mesenchymal stem cells (MSCs). The concentration ranges selected for each drug and investigational agent were based upon clinically achievable concentrations if the clinical Cmax of the agent was known.
Compounds. The drugs and investigational agents: BAY 2416964 (NSC825713), GNF351 (NSC835774), CH-223191 (NSC835775), CPI-455 (NSC825282), aza-TdCyd (NSC777586), decitabine (NSC127716), belinostat (NSC758774), entinostat (NSC756642), pevonedistat (NSC761192), tazemetostat (NSC777109), talazoparib (NSC765396), olaparib (NSC753686), selinexor (NSC780203), nedisertib (M3814, NSC802822), bortezomib (NSC756655), venetoclax (NSC766270), doxorubicin (NSC123127), elimusertib (BAY189344, NSC800525), ceralasertib (AZD6738, NSC777638), TAK-243 (NSC785004), alisertib (NSC759677), etoposide (NSC141540), topotecan (NSC609699), eribulin (NSC707389), gemcitabine (NSC613327), carboplatin (NSC241240), cisplatin (NSC119875), and SN-38 (NSC673596) were obtained from the National Cancer Institute (NCI) Developmental Therapeutics Program Chemical Repository (32). The FDA-approved anticancer drug set is available from the Developmental Therapeutics Program at https://dtp.cancer.gov/organization/dscb/obtaining/available plates.htm. […] The stock solutions were prepared in dimethyl sulfoxide (DMSO, Sigma-Aldrich, St. Louis, MO, cat. D2650), except for the platinum compounds which were prepared in saline (Quality Biological, Gaithersburg, MD, cat. 114-055-101), at 800-fold the tested concentration and stored at -70 degrees C prior to their use. All drugs and investigational agents were tested over a range starting from a high concentration at or near the clinical Cmax and decreasing in half-log increments. If the clinical Cmax for an agent had not been determined, the highest concentration tested was 10 microM (Table 1).
Cell Culture. All cells were maintained in an incubator at 37 degrees C and 5% CO2 with 95% humidity. The PDC lines were cultured according to standard operating procedures established by the NCI PDMR (https://pdmr.cancer.gov). Briefly, all PDCs were thawed and cultured in Matrigel-coated flasks prepared with a working solution of 1X Ham's F-12 nutrient mix, without supplementation (Invitrogen, Waltham, MA, cat. 11765054), 100 U/mL penicillin-streptomycin (Invitrogen, cat. 15140122), and 2.5% Matrigel (Corning Inc., Corning, NY, cat. 354248) for the first three passages. All PDCs were cultured in complete DMEM/F-12 media containing advanced DMEM/F-12 (Invitrogen, cat. 12634028), 4.9% defined fetal bovine serum, heat inactivated (HyClone Laboratories Inc., Logan, UT, cat. SH30070.03HI), 389 ng/mL hydrocortisone (Sigma-Aldrich, cat. H4001), 9.7 ng/mL human EGF recombinant protein (Invitrogen, cat. PHG0313), 23.4 microg/mL adenine (Sigma-Aldrich, cat. A2786), 97.3 U/mL penicillin-streptomycin (Invitrogen, cat. 15140122), 1.9 mM L-glutamine (Invitrogen, cat. 25030081), and 9.7 microM Y-27632 dihydrochloride (Tocris Bioscience, Bristol, United Kingdom, cat. 1254). The PDCs were cultured in complete DMEM/F12 media without 10 microM Y-27632 dihydrochloride for at least two passages prior to the screen. The established cell lines NCI-H1341 and […] were cultured in DMEM/F-12, HEPES (Invitrogen, cat. 11330032), 5% defined fetal bovine serum (HyClone Laboratories Inc., cat. SH30070.03), ITS premix universal culture supplement [insulin (5 microg/mL), transferrin (5 microg/mL), and selenious acid (5 ng/mL)] […]
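For viability, T/C in this document: compound exposure lasted 7 days; 100% = DMSO vehicle control growth.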

Question: With CC[C@@]1(O)C(=O)OCc2c1cc1n(c2=O)Cc2cc3c(CN(C)C)c(O)ccc3nc2-1 + CC(CO)NC(=O)c1cc(-c2ccc(Cl)cc2)nn(-c2cnn(C)c2)c1=O as the compound, how does the IC50 (second compound 0.1 µM) read?
Answer: > 100 nM

Question: And the IC50 (second compound 0.316 µM)?
Answer: > 100 nM

Question: What about the IC50 (second compound 1 µM) of the same compound?
Answer: > 100 nM

Question: And the IC50 (second compound 3.16 µM)?
Answer: 87.8 nM

Question: What about the IC50 (second compound 10 µM) of the same compound?
Answer: 84.6 nM

Question: What about the viability, T/C (second compound 0.1 µM, first compound 0.000316 µM) of the same compound?
Answer: 102%

Question: What about the viability, T/C (second compound 0.1 µM, first compound 0.001 µM) of the same compound?
Answer: 95.5%

Question: What about the viability, T/C (second compound 0.1 µM, first compound 0.00316 µM) of the same compound?
Answer: 90.4%

Question: And the viability, T/C (second compound 0.1 µM, first compound 0.01 µM)?
Answer: 86.8%

Question: And the viability, T/C (second compound 0.1 µM, first compound 0.0316 µM)?
Answer: 69.7%

Question: And the viability, T/C (second compound 0.1 µM, first compound 0.1 µM)?
Answer: 51.7%

Question: And the viability, T/C (second compound 0.316 µM, first compound 0.000316 µM)?
Answer: 97.2%

Question: And the viability, T/C (second compound 0.316 µM, first compound 0.001 µM)?
Answer: 98%

Question: And the viability, T/C (second compound 0.316 µM, first compound 0.00316 µM)?
Answer: 92.9%

Question: And the viability, T/C (second compound 0.316 µM, first compound 0.01 µM)?
Answer: 80.6%

Question: What about the viability, T/C (second compound 0.316 µM, first compound 0.0316 µM) of the same compound?
Answer: 69.5%

Question: What about the viability, T/C (second compound 0.316 µM, first compound 0.1 µM) of the same compound?
Answer: 58.6%

Question: And the viability, T/C (second compound 1 µM, first compound 0.000316 µM)?
Answer: 101%

Question: What about the viability, T/C (second compound 1 µM, first compound 0.001 µM) of the same compound?
Answer: 110%

Question: And the viability, T/C (second compound 1 µM, first compound 0.00316 µM)?
Answer: 93.6%

Question: And the viability, T/C (second compound 1 µM, first compound 0.01 µM)?
Answer: 80.8%

Question: What about the viability, T/C (second compound 1 µM, first compound 0.0316 µM) of the same compound?
Answer: 75%

Question: What about the viability, T/C (second compound 1 µM, first compound 0.1 µM) of the same compound?
Answer: 57.3%

Question: And the viability, T/C (second compound 3.16 µM, first compound 0.000316 µM)?
Answer: 90.5%

Question: What about the viability, T/C (second compound 3.16 µM, first compound 0.001 µM) of the same compound?
Answer: 97%

Question: What about the viability, T/C (second compound 3.16 µM, first compound 0.00316 µM) of the same compound?
Answer: 91.4%

Question: What about the viability, T/C (second compound 3.16 µM, first compound 0.01 µM) of the same compound?
Answer: 78.2%

Question: What about the viability, T/C (second compound 3.16 µM, first compound 0.0316 µM) of the same compound?
Answer: 65.9%

Question: What about the viability, T/C (second compound 3.16 µM, first compound 0.1 µM) of the same compound?
Answer: 47.8%

Question: And the viability, T/C (second compound 10 µM, first compound 0.000316 µM)?
Answer: 100%

Question: What about the viability, T/C (second compound 10 µM, first compound 0.001 µM) of the same compound?
Answer: 101%

Question: What about the viability, T/C (second compound 10 µM, first compound 0.00316 µM) of the same compound?
Answer: 94.7%

Question: And the viability, T/C (second compound 10 µM, first compound 0.01 µM)?
Answer: 93.2%

Question: What about the viability, T/C (second compound 10 µM, first compound 0.0316 µM) of the same compound?
Answer: 70.5%

Question: What about the viability, T/C (second compound 10 µM, first compound 0.1 µM) of the same compound?
Answer: 46.5%
